Test [1] concerns mouse aortae. In words: Vasorelaxation of pre-contracted mouse aortae. Particulars: 0.1-1000 nM, pre-contracted with U46619. An excerpt: FIG. 17: The selective AT2R ligands, β-Pro^7-Ang III and D-Arg^2-β-Pro^7-Ang III, are functional agonists in vasculature.
For test [2], the system named is male FVB/N mice on high salt diet, liver. In words: High salt (5%) diet intervention model, liver. In kind it is in vivo, mouse. Particulars: weeks 5-8; peptides 75 pmol/kg/min s.c.; Cand 2 mg/kg/day, captopril 3 mg/kg/day.
Test [3] deals with T1, human AT1R (Homo sapiens, UniProt P30556).
T1 construct: expressed in transfected cells
T1 sequence (P30556 1-359): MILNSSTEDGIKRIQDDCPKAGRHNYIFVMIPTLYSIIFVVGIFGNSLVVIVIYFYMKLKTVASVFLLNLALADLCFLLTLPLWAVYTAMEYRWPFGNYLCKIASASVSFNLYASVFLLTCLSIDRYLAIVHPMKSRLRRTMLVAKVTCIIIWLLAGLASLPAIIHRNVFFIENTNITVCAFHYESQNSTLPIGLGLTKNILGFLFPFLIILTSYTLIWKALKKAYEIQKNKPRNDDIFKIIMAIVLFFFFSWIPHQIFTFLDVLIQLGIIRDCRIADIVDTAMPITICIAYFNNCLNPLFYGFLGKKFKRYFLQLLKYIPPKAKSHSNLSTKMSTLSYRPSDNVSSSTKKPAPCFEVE
In words: Competition radioligand binding (125I-Sar1-Ile8-AngII) in AT1R-transfected HEK-293 cells.

One substance from patent US11331368B2, “Angiotensin receptor agonists and uses thereof” (Monash University, priority 2017, dated 2022) can be followed below.

Regarding “Arg-Val-Tyr-Ile-His-β-Pro-Phe [βPro-Ang III]”, the “vasorelaxation of pre-contracted aortae” value in test [1] is reported as “concentration-dependent vasorelaxation”. Further, in test [2], the “liver fibrosis (picrosirius red, polarized light)” value is given as “appears to attenuate” and the “liver steatosis (Oil Red O)” value is “partially reversed”. The “binding at AT1R (displacement of 125I-Sar1-Ile8-AngII), in words” value in test [3] is listed as “bind poorly”.
